In US8404679B2, “Pyrrolidine derivatives as NK2 receptor antagonists” (Hoffmann-La Roche Inc., priority 2008, dated 2013):

biological target: T1, human NK2 receptor (Homo sapiens, UniProt P21452); test: [3H]SR48968 competition binding assay; settings: [3H]SR48968 displacement, membranes of CHO cells stably expressing recombinant human NK2 receptor; Ki from IC50 by Cheng-Prussoff
T1 construct: purchased Perkin Elmer biosignal Inc. 6110510
T1 sequence (P21452 1-398): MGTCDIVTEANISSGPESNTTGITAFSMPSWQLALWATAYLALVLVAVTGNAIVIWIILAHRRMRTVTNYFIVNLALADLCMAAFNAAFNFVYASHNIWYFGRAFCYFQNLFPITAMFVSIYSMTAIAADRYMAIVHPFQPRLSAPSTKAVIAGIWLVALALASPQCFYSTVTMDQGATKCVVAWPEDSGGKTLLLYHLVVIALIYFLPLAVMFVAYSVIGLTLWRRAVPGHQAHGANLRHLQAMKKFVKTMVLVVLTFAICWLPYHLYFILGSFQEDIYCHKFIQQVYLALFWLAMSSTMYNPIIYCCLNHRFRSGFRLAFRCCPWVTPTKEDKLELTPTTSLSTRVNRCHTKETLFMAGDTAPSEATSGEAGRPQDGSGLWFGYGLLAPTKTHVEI
Summary of the method: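 Membranes from CHO cells stably expressing recombinant human NK2 were incubated 75 min at RT with [3H]SR48968 at its KD and 10 compound concentrations (0.0003–10 μM) in Tris-HCl pH 7.4, MnCl2, chymostatin, BSA. Filter-bound radioactivity was counted; Hill-fitted IC50 converted to Ki via Cheng-Prusoff.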

Structure (SMILES) | Ki
CC(C(=O)N(C)[C@H]1CN(C(=O)C2CCN(CC3CC3)CC2)C[C@@H]1c1ccc(Cl)c(Cl)c1)c1ccc(F)cc1 (mixture of isomers) [Example 159, N-[(3RS,4SR)-1-(1-Cyclopropylmethyl-piperidine-4-carbonyl)-4-(3,4-dichloro-phenyl)-pyrrolidin-3-yl]-2-(4-fluoro-phenyl)-N-methyl-propionamide] | 43.3 nM
CN(C(=O)c1ccc(Cl)c(C(F)(F)F)c1)[C@H]1CN(C(=O)C2CCNCC2)C[C@@H]1c1ccc(Cl)cc1 (racemic) [Example 160, 4-Chloro-N-[(3RS,4SR)-4-(4-chloro-phenyl)-1-(piperidine-4-carbonyl)-pyrrolidin-3-yl]-N-methyl-3-trifluoromethyl-benzamide] | 5 nM
CN(C(=O)c1ccc(Cl)c(C(F)(F)F)c1)[C@H]1CN(C(=O)C2CCN(S(=O)(=O)C3CC3)CC2)C[C@@H]1c1ccc(Cl)cc1 (racemic) [Example 161, 4-Chloro-N-[(3RS,4SR)-4-(4-chloro-phenyl)-1-(1-cyclopropanesulfonyl-piperidine-4-carbonyl)-pyrrolidin-3-yl]-N-methyl-3-trifluoromethyl-benzamide] | 1.7 nM
CN(C(=O)c1ccc(Cl)c(C(F)(F)F)c1)[C@H]1CN(C(=O)C2CCN(C3CCOCC3)CC2)C[C@@H]1c1ccc(Cl)cc1 (racemic) [Example 162, 4-Chloro-N-{(3RS,4SR)-4-(4-chloro-phenyl)-1-[1-(tetrahydro-pyran-4-yl)-piperidine-4-carbonyl]-pyrrolidin-3-yl}-N-methyl-3-trifluoromethyl-benzamide] | 0.4 nM
CN(C(=O)c1ccc(Cl)c(C(F)(F)F)c1)[C@H]1CN(C(=O)C2CCN(CC#N)CC2)C[C@@H]1c1ccc(Cl)cc1 (racemic) [Example 163, 4-Chloro-N-[(3RS,4SR)-4-(4-chloro-phenyl)-1-(1-cyanomethyl-piperidine-4-carbonyl)-pyrrolidin-3-yl]-N-methyl-3-trifluoromethyl-benzamide] | 3.7 nM
CN(C(=O)c1ccc(Cl)c(C(F)(F)F)c1)[C@H]1CN(C(=O)C2CCN(CC3CC3)CC2)C[C@@H]1c1ccc(Cl)c(Cl)c1 (racemic) [Example 164, 4-Chloro-N-[(3RS,4SR)-1-(1-cyclopropylmethyl-piperidine-4-carbonyl)-4-(3,4-dichloro-phenyl)-pyrrolidin-3-yl]-N-methyl-3-trifluoromethyl-benzamide] | 0.5 nM
CN(C(=O)c1ccc(Cl)c(C(F)(F)F)c1)[C@H]1CN(C(=O)C2CCN(CCC#N)CC2)C[C@@H]1c1ccc(Cl)cc1 (racemic) [Example 165, 4-Chloro-N-{(3RS,4SR)-4-(4-chloro-phenyl)-1-[1-(2-cyano-ethyl)-piperidine-4-carbonyl]-pyrrolidin-3-yl}-N-methyl-3-trifluoromethyl-benzamide] | 1.3 nM
CN(C(=O)c1cc(C(F)(F)F)ccn1)[C@H]1CN(C(=O)C2CCN(C(=O)C3(C)CC3)CC2)C[C@@H]1c1ccc(Cl)c(Cl)c1 (racemic) [Example 166, 4-Trifluoromethyl-pyridine-2-carboxylic acid {(3RS,4SR)-4-(3,4-dichloro-phenyl)-1-[1-(1-methyl-cyclopropanecarbonyl)-piperidine-4-carbonyl]-pyrrolidin-3-yl}-methyl-amide] | 0.7 nM
CN(C(=O)c1ccc(Cl)c(Br)c1)[C@H]1CN(C(=O)C2CCN(C(=O)C3(C)CC3)CC2)C[C@@H]1c1ccc(Cl)c(Cl)c1 (racemic) [Example 171, 3-Bromo-4-chloro-N-{(3RS,4SR)-4-(3,4-dichloro-phenyl)-1-[1-(1-methyl-cyclopropanecarbonyl)-piperidine-4-carbonyl]-pyrrolidin-3-yl}-N-methyl-benzamide] | 0.8 nM
CN(C(=O)c1ccc(Cl)c(C2CC2)c1)[C@H]1CN(C(=O)C2CCN(C(=O)C3(C)CC3)CC2)C[C@@H]1c1ccc(Cl)c(Cl)c1 (racemic) [Example 173, 4-Chloro-3-cyclopropyl-N-{(3RS,4SR)-4-(3,4-dichloro-phenyl)-1-[1-(1-methyl-cyclopropanecarbonyl)-piperidine-4-carbonyl]-pyrrolidin-3-yl}-N-methyl-benzamide] | 1.7 nM
CCc1cc(C(=O)N(C)[C@H]2CN(C(=O)C3CCN(C(=O)C4(C)CC4)CC3)C[C@@H]2c2ccc(Cl)c(Cl)c2)ccc1Cl (racemic) [Example 174, 4-Chloro-N-{(3RS,4SR)-4-(3,4-dichloro-phenyl)-1-[1-(1-methyl-cyclopropanecarbonyl)-piperidine-4-carbonyl]-pyrrolidin-3-yl}-3-ethyl-N-methyl-benzamide] | 0.9 nM
COc1ccc(C(=O)N(C)[C@@H]2CN(C(=O)N3CCN(S(C)(=O)=O)[C@@H](C)C3)C[C@H]2c2ccc(Cl)c(Cl)c2)cc1C(F)(F)F [Example 42] | 1.4 nM
COc1ccc(C(=O)N(C)[C@@H]2CN(C(=O)N3CCN(S(C)(=O)=O)[C@H](C)C3)C[C@H]2c2ccc(Cl)c(Cl)c2)cc1C(F)(F)F [Example 43] | 2.23 nM
COc1ccc(C(=O)N(C)[C@@H]2CN(C(=O)C3CCN(C(=O)C4(C)CC4)CC3)C[C@H]2c2ccc(Cl)cc2)cc1C(F)(F)F [Example 94, N-{(3S,4R)-4-(4-Chloro-phenyl)-1-[1-(1-methyl-cyclopropanecarbonyl)-piperidine-4-carbonyl]-pyrrolidin-3-yl}-4-methoxy-N-methyl-3-trifluoromethyl-benzamide] | 0.6 nM
COc1ccc(C(=O)N(C)[C@@H]2CN(C(=O)C3CCN(C(=O)C4(C)CC4)CC3)C[C@H]2c2ccc(Cl)c(Cl)c2)cc1C(F)(F)F [Example 107, N-{(3S,4R)-4-(3,4-Dichloro-phenyl)-1-[1-(1-methyl-cyclopropanecarbonyl)-piperidine-4-carbonyl]-pyrrolidin-3-yl}-4-methoxy-N-methyl-3-trifluoromethyl-benzamide] | 0.6 nM
CN(C(=O)Cc1ccc(F)cc1)[C@H]1CN(C(=O)C2CCN(C(=O)C3(C)CC3)CC2)C[C@@H]1c1ccc(Cl)c(Cl)c1 [Example 118, N-{(3R,4S)-4-(3,4-Dichloro-phenyl)-1-[1-(1-methyl-cyclopropanecarbonyl)-piperidine-4-carbonyl]-pyrrolidin-3-yl}-2-(4-fluoro-phenyl)-N-methyl-acetamide] | 32.4 nM
CN(C(=O)Cc1ccc(F)cc1)[C@@H]1CN(C(=O)C2CCN(C(=O)C3(C)CC3)CC2)C[C@H]1c1ccc(Cl)c(Cl)c1 [Example 119, N-{(3S,4R)-4-(3,4-Dichloro-phenyl)-1-[1-(1-methyl-cyclopropanecarbonyl)-piperidine-4-carbonyl]-pyrrolidin-3-yl}-2-(4-fluoro-phenyl)-N-methyl-acetamide] | 11.3 nM
COc1ccc(C(=O)N(C)[C@H]2CN(C(=O)C3CCN(C(=O)C4(C)CC4)CC3)C[C@@H]2c2ccc(Cl)cc2C)cc1C(F)(F)F [Example 123, N-{(3R,4S)-4-(4-Chloro-2-methyl-phenyl)-1-[1-(1-methyl-cyclopropanecarbonyl)-piperidine-4-carbonyl]-pyrrolidin-3-yl}-4-methoxy-N-methyl-3-trifluoromethyl-benzamide] | 38 nM
CN(C(=O)c1ccc(Cl)c(C(F)(F)F)c1)[C@H]1CN(C(=O)C2CCN(CC3CC3)CC2)C[C@@H]1c1ccc(Cl)cc1 [Example 153, 4-Chloro-N-[(3R,4S)-4-(4-chloro-phenyl)-1-(1-cyclopropylmethyl-piperidine-4-carbonyl)-pyrrolidin-3-yl]-N-methyl-3-trifluoromethyl-benzamide] | 52.7 nM
CN(C(=O)c1ccc(Cl)c(C(F)(F)F)c1)[C@@H]1CN(C(=O)C2CCN(CC3CC3)CC2)C[C@H]1c1ccc(Cl)cc1 [Example 154, 4-Chloro-N-[(3S,4R)-4-(4-chloro-phenyl)-1-(1-cyclopropylmethyl-piperidine-4-carbonyl)-pyrrolidin-3-yl]-N-methyl-3-trifluoromethyl-benzamide] | 0.5 nM
CN(C(=O)c1ccc(Cl)c(C(F)(F)F)c1)[C@@H]1CN(C(=O)C2CCN(C(=O)C3(C)CC3)CC2)C[C@H]1c1ccc(Cl)cc1 [Example 156, 4-Chloro-N-{(3S,4R)-4-(4-chloro-phenyl)-1-[1-(1-methyl-cyclopropanecarbonyl)-piperidine-4-carbonyl]-pyrrolidin-3-yl}-N-methyl-3-trifluoromethyl-benzamide] | 0.8 nM
CN(C(=O)c1ccc(Cl)c(C(F)(F)F)c1)[C@@H]1CN(C(=O)C2CCN(CC3CC3)CC2)C[C@H]1c1ccc(Cl)c(Cl)c1 [Example 167, 4-Chloro-N-[(3S,4R)-1-(1-cyclopropylmethyl-piperidine-4-carbonyl)-4-(3,4-dichloro-phenyl)-pyrrolidin-3-yl]-N-methyl-3-trifluoromethyl-benzamide] | 93.6 nM
CN(C(=O)c1ccc(Cl)c(C(F)(F)F)c1)[C@H]1CN(C(=O)C2CCN(CC3CC3)CC2)C[C@@H]1c1ccc(Cl)c(Cl)c1 [Example 168, 4-Chloro-N-[(3R,4S)-1-(1-cyclopropylmethyl-piperidine-4-carbonyl)-4-(3,4-dichloro-phenyl)-pyrrolidin-3-yl]-N-methyl-3-trifluoromethyl-benzamide] | 0.4 nM
CN(C(=O)c1cc(C(F)(F)F)ccn1)[C@@H]1CN(C(=O)C2CCN(C(=O)C3(C)CC3)CC2)C[C@H]1c1ccc(Cl)c(Cl)c1 [Example 170, 4-Trifluoromethyl-pyridine-2-carboxylic acid {(3S,4R)-4-(3,4-dichloro-phenyl)-1-[1-(1-methyl-cyclopropanecarbonyl)-piperidine-4-carbonyl]-pyrrolidin-3-yl}-methyl-amide] | 0.4 nM
